Tests used:
Full-length human MNK2 = target: T1, Full-length human MNK2 (Homo sapiens, UniProt Q9HBH9, T379D); test: MNK2 biochemical IC50 assay (Caliper Mobility Shift Assay)
T1 construct: GST (N); purchased Carna Biosciences 02-146; host or cells: baculovirus expression system

MAPK8 = MAPK8 (Homo sapiens, UniProt P45983); test: Kinase selectivity screen MAPK8; conditions: read-out: % inhibition of MAPK8
TYRO3 = target: T2, TYRO3 (Homo sapiens, UniProt Q06418); test: Kinase selectivity screen TYRO3; conditions: read-out: % inhibition of TYRO3
T2 sequence (Q06418 41-890): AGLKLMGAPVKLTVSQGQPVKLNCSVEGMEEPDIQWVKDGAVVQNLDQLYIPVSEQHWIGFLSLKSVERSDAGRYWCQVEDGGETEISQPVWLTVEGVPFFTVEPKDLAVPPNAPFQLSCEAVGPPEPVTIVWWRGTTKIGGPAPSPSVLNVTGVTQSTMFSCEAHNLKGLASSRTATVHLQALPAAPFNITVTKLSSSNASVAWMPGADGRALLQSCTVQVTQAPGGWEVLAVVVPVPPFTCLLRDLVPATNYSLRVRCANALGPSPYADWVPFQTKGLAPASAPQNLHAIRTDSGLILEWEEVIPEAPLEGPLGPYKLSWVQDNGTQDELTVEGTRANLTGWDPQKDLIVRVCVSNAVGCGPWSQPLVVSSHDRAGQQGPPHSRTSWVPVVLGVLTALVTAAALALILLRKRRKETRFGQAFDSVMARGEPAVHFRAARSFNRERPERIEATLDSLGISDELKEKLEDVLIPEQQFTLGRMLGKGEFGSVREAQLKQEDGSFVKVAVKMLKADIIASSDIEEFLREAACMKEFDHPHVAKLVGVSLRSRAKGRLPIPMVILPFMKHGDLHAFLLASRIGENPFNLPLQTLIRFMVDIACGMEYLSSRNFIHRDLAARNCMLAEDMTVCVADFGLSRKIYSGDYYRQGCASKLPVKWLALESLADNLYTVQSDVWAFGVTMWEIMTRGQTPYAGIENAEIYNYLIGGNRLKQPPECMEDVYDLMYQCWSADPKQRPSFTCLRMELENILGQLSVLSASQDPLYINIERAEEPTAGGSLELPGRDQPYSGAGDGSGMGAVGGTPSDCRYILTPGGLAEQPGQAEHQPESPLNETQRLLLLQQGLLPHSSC

PRKCE = target: T3, PRKCE (Homo sapiens, UniProt Q02156); test: Kinase selectivity screen PRKCE; conditions: read-out: % inhibition of PRKCE
T3 sequence (Q02156 1-737): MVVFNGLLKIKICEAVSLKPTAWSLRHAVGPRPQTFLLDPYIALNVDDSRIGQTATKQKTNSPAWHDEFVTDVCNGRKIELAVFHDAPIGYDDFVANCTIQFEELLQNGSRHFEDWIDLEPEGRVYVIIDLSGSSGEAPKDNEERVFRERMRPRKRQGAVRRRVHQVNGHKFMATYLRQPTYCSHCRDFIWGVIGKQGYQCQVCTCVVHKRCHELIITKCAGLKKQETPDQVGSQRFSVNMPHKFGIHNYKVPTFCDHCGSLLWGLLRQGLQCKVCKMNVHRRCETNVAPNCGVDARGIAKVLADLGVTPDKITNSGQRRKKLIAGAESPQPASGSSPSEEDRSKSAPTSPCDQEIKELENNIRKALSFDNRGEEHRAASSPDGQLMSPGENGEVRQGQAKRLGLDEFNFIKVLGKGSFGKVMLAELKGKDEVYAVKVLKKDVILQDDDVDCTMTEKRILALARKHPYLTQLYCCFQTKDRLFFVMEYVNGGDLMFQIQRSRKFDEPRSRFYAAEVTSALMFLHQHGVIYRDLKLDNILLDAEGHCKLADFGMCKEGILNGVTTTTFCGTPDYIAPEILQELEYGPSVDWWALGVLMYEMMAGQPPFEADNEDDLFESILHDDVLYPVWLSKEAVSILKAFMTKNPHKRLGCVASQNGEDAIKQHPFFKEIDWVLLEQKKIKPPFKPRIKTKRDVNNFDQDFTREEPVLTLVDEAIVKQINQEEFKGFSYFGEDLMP

EGFR = EGFR (Homo sapiens, UniProt P00533); test: Kinase selectivity screen EGFR; conditions: read-out: % inhibition of EGFR
EGFR, sequence (P00533 25-1210): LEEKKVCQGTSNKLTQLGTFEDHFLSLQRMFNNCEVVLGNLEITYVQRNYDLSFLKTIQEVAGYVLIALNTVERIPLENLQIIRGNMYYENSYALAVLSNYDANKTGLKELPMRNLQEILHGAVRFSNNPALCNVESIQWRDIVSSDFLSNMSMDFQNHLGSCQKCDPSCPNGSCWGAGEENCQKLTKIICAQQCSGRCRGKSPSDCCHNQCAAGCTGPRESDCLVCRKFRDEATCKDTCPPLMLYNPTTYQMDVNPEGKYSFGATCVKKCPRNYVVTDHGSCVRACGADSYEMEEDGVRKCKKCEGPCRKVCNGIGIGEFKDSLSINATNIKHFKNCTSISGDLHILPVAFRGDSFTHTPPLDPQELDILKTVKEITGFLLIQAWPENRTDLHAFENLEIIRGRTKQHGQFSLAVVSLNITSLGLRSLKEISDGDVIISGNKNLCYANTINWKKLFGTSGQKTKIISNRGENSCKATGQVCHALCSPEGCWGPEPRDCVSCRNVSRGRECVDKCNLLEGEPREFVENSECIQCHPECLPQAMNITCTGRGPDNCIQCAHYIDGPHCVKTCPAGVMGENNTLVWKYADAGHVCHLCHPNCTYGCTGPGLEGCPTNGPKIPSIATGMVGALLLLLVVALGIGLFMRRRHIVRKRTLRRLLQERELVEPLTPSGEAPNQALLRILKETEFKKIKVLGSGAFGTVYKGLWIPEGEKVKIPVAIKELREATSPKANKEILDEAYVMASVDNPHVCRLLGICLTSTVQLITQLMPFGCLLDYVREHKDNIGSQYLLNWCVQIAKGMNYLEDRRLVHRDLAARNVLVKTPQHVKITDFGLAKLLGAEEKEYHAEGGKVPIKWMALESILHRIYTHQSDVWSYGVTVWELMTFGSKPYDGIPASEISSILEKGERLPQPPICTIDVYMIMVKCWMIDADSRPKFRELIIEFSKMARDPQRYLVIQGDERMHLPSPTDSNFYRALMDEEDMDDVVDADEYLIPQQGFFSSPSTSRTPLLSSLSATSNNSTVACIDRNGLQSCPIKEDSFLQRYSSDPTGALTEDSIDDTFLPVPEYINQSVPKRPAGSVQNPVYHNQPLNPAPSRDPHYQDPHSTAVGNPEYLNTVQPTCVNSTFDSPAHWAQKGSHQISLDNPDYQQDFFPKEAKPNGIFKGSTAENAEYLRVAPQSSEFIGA

AKT1 = AKT1 (Homo sapiens, UniProt P31749); test: Kinase selectivity screen AKT1; conditions: read-out: % inhibition of AKT1
AKT1, sequence (P31749 whole entry, species assumed): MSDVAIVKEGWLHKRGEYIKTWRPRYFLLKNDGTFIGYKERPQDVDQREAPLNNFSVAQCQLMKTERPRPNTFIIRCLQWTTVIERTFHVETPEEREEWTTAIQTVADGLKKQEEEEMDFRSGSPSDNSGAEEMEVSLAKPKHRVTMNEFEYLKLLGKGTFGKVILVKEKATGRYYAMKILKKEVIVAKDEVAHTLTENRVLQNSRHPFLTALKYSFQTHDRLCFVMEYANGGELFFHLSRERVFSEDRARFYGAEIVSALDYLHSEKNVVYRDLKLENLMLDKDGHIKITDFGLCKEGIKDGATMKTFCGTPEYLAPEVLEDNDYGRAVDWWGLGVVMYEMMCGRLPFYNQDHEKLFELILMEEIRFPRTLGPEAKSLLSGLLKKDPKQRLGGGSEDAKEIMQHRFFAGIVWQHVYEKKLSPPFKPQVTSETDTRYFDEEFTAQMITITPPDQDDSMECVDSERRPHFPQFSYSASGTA

T1 sequence (Q9HBH9 whole entry T379D): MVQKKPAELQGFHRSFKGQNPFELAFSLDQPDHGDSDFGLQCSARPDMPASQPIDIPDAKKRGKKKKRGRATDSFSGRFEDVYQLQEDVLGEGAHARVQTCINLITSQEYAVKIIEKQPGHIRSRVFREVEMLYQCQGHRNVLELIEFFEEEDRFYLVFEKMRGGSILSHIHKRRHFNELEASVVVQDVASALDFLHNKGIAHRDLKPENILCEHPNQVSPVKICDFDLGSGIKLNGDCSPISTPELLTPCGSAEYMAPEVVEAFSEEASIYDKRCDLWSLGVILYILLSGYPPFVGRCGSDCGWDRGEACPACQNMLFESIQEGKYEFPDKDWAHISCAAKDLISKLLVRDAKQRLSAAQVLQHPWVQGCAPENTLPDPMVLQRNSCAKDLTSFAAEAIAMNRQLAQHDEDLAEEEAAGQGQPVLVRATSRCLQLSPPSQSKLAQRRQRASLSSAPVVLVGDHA
MAPK8, sequence (P45983 whole entry, species assumed): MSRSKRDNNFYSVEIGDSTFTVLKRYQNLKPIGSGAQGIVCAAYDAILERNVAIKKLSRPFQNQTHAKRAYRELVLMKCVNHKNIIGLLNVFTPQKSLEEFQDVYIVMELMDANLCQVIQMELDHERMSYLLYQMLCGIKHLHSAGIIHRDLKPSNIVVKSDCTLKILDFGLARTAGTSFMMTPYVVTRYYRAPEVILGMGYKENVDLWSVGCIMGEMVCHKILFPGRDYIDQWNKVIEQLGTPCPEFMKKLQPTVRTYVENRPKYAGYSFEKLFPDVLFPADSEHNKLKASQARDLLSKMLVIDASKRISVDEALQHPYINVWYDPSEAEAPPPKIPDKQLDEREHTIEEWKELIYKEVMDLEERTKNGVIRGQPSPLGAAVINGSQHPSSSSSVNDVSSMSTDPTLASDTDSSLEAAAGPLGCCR

SMILES | IC50 (Full-length human MNK2) [nM] | inhibition at 1 µM (MAPK8) [%] | inhibition at 1 µM (TYRO3) [%] | inhibition at 1 µM (PRKCE) [%] | inhibition at 1 µM (EGFR) [%] | inhibition at 1 µM (AKT1) [%]
O=C(NCC1CCNCC1)c1nc2c(N3CCc4cc(F)ccc43)ncnc2s1 [Example 58, 7-(5-fluoroindolin-1-yl)-N-(4-piperidylmethyl)thiazolo[5,4-d]pyrimidine-2-carboxamide] | 3.98 | 1 | 20 | 0 | 0 | 0
CN(C)CCCNC(=O)c1nc2c(N3CCc4cc(F)ccc43)ncnc2s1 [Example 64, N-[3-(dimethylamino)propyl]-7-(5-fluoroindolin-1-yl)thiazolo[5,4-d]pyrimidine-2-carboxamide] | 2 | 0 | 0 | 0 | 5 | 0
CC(C)Oc1cc(F)ccc1Nc1ncnc2sc(C(=O)NCC3CCNCC3)nc12 [Example 10, 7-(4-fluoro-2-isopropoxy-anilino)-N-(4-piperidylmethyl)thiazolo[5,4-d]pyrimidine-2-carboxamide] | 50.1 | 5 | 0 | 4 | 0 | 0

— patent US10669284B2, “Fused thiazolopyrimidine derivatives as MNKS inhibitors” (LIFEARC, priority 2015, dated 2020)
